Experimental data taken from the NIST ThermoML archive (doi:10.1016/j.jct.2014.07.018).
“And” between values parts separate entries of the source, which are not always exact repeats. Equal entries are not always repeated.

Experiment: molar heat capacity at constant pressure
Conditions: 101.33 kPa, Vacuum adiabatic calorimetry

CCC[n+]1ccn(C)c1.[Br-] [1-methyl-3-propylimidazolium bromide]
molar heat capacity at constant pressure
Conditions	Crystal 2	Liquid
228.67 K	177 J/K/mol	–
229.42 K	177.5 J/K/mol	–
230 K	177.8 J/K/mol	261.5 J/K/mol
230.71 K	178.2 J/K/mol	–
231.48 K	178.7 J/K/mol	–
233.47 K	180 J/K/mol	–
233.54 K	180 J/K/mol	–
235.59 K	181.3 J/K/mol	–
235.81 K	181.5 J/K/mol	–
237.64 K	182.5 J/K/mol	–
237.86 K	182.7 J/K/mol	–
239.69 K	183.9 J/K/mol	–
239.9 K	184.1 J/K/mol	–
240 K	184.1 J/K/mol	263.8 J/K/mol
241.74 K	185.1 J/K/mol	–
241.94 K	185.3 J/K/mol	–
243.78 K	186.4 J/K/mol	–
243.99 K	186.6 J/K/mol	–
245.82 K	187.8 J/K/mol	–
246.03 K	187.9 J/K/mol	–
247.86 K	189.1 J/K/mol	–
248.07 K	189.3 J/K/mol	–
249.89 K	190.6 J/K/mol	–
250 K	190.6 J/K/mol	266.2 J/K/mol
250.11 K	190.7 J/K/mol	–
251.92 K	192 J/K/mol	–
252.16 K	192.2 J/K/mol	–
253.95 K	193.4 J/K/mol	–
254.2 K	193.6 J/K/mol	–
255.97 K	194.9 J/K/mol	–
256.25 K	195.1 J/K/mol	–
257.98 K	196.4 J/K/mol	–
258.29 K	196.7 J/K/mol	–
260 K	198 J/K/mol and 198.1 J/K/mol	269.1 J/K/mol
260.33 K	198.3 J/K/mol	–
262 K	199.6 J/K/mol	–
262.37 K	199.9 J/K/mol	–
264.01 K	201.2 J/K/mol	–
264.42 K	201.7 J/K/mol	–
266.06 K	203.2 J/K/mol	–
266.47 K	203.4 J/K/mol	–
268.16 K	205.1 J/K/mol	–
268.52 K	205.3 J/K/mol	–
270 K	206.7 J/K/mol	272 J/K/mol
270.26 K	207.1 J/K/mol	–
270.57 K	207.1 J/K/mol	–
272.36 K	209.2 J/K/mol	–
272.62 K	209.4 J/K/mol	–
274.45 K	211.5 J/K/mol	–
274.67 K	211.5 J/K/mol	–
276.54 K	213.9 J/K/mol	–
276.71 K	213.9 J/K/mol	–
278.62 K	216.6 J/K/mol	–
278.75 K	216.6 J/K/mol	–
280 K	216.4 J/K/mol	275.1 J/K/mol
280.68 K	219.5 J/K/mol	–
280.79 K	219.5 J/K/mol	–
282.74 K	222.7 J/K/mol	–
282.84 K	222.7 J/K/mol	–
284.78 K	226.4 J/K/mol	–
284.88 K	226.6 J/K/mol	–
286.82 K	230.9 J/K/mol	–
288.82 K	236.3 J/K/mol	–
290 K	227.1 J/K/mol	278.2 J/K/mol
290.81 K	242.8 J/K/mol	–
292.77 K	251.5 J/K/mol	–
294.69 K	262.7 J/K/mol	–
295.89 K	–	280.2 J/K/mol
296.57 K	278.5 J/K/mol	–
297.86 K	–	280.6 J/K/mol
298.15 K	–	280.8 J/K/mol
298.39 K	300.9 J/K/mol	–
299.92 K	–	281.4 J/K/mol
300 K	–	281.4 J/K/mol
300.12 K	334.9 J/K/mol	–
301.74 K	387.4 J/K/mol	–
301.97 K	–	282 J/K/mol
303.2 K	470.7 J/K/mol	–
304.02 K	–	282.8 J/K/mol
304.47 K	613.7 J/K/mol	–
305.51 K	844.2 J/K/mol	–
306.07 K	–	283.2 J/K/mol
306.32 K	1193 J/K/mol	–
306.93 K	1697 J/K/mol	–
308.12 K	–	284.1 J/K/mol
309.54 K	251.4 J/K/mol	284.6 J/K/mol
310 K	–	284.7 J/K/mol
310.17 K	–	284.7 J/K/mol
312.01 K	–	285.5 J/K/mol
312.22 K	–	285.3 J/K/mol
314.27 K	–	285.9 J/K/mol
316.32 K	–	286.9 J/K/mol
318.37 K	–	287.5 J/K/mol
320 K	–	288.1 J/K/mol
320.41 K	–	288.2 J/K/mol
322.46 K	–	288.8 J/K/mol
324.5 K	–	289.6 J/K/mol
326.54 K	–	290.4 J/K/mol
328.58 K	–	291 J/K/mol
330 K	–	291.7 J/K/mol
330.62 K	–	291.9 J/K/mol
332.66 K	–	292.7 J/K/mol
334.7 K	–	293.3 J/K/mol
336.73 K	–	294.1 J/K/mol
338.61 K	–	294.7 J/K/mol
340 K	–	295.3 J/K/mol
340.58 K	–	295.5 J/K/mol
342.63 K	–	296.2 J/K/mol
344.68 K	–	297 J/K/mol
346.73 K	–	297.8 J/K/mol
348.78 K	–	298.6 J/K/mol
350 K	–	299.1 J/K/mol
350.82 K	–	299.4 J/K/mol
352.87 K	–	300.3 J/K/mol
354.92 K	–	300.9 J/K/mol
356.97 K	–	301.7 J/K/mol
359.01 K	–	302.5 J/K/mol
360 K	–	303 J/K/mol
361.05 K	–	303.5 J/K/mol
363.1 K	–	304.2 J/K/mol
365.14 K	–	305 J/K/mol
367.18 K	–	305.8 J/K/mol
370 K	–	307 J/K/mol
